Test results as given in patent US8648066B2 (Exelixis, Inc., priority 2009, dated 2014).
Where “and” joins values, the source holds several entries; their conditions need not be identical. Equal entries are not always repeated.

Biological target: mTOR/GbL/Raptor (mTORC1) (Homo sapiens, UniProt P42345)
Assay: mTOR/GbL/Raptor (mTORC1) ELISA assay
Type: biochemical
Settings: phosphorylation of 4E-BP1; 0.2 nM mTORC1, 10 μM ATP; read-out: IC50 in this assay (mTORC1 ELISA)
Method in brief: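 ELISA read-out: phospho-4E-BP1 captured on Ni-chelate plates and detected with anti-phospho antibody plus HRP-anti-IgG luminescence. The kinase step ran 120 min at ambient temperature with 0.2 nM human mTORC1, 10 µM ATP, 50 nM His-4E-BP1, 10 mM MnCl2, pH 7.2 HEPES.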

In the case of `CC(=O)Nc1nc2cc(-c3ccc4c(c3)CN(c3nc(CN(C)C)nc5c3CC(C)(C)CC5)CCO4)cnc2s1` [Example 617, N-[6-(4-{2-[(dimethylamino)methyl]-6,6-dimethyl-5,6,7,8-tetrahydroquinazolin-4-yl}-2,3,4,5-tetrahydro-1,4-benzoxazepin-7-yl)[1,3]thiazolo[5,4-b]pyridin-2-yl]acetamide], the IC50 is reported as 0.01 to 0.05 µM and 0.05 to 0.25 µM.

For `CC(C)Nc1nc2ccc(-c3ccc4c(c3)CN(c3ccnc5ccccc35)CCO4)cc2[nH]1` [Example 209, N-(1-methylethyl)-6-(4-quinolin-4-yl-2,3,4,5-tetrahydro-1,4-benzoxazepin-7-yl)-1H-benzimidazol-2-amine], the IC50 was no less than 2 µM.

Work on `CC[C@H]1CCc2c(ncnc2N2CCOc3ccc(-c4cnc(N)c(S(=O)(=O)NCC(C)(C)N)c4)cc3C2)C1` [Example 407, 2-amino-N-(2-amino-2-methylpropyl)-5-{4-[(7S)-7-ethyl-5,6,7,8-tetrahydroquinazolin-4-yl]-2,3,4,5-tetrahydro-1,4-benzoxazepin-7-yl]pyridine-3-sulfonamide] yielded an IC50 of 0.01 to 0.05 µM.

`CC1(C)CCc2ncnc(N3CCOc4ccc(-c5ccc6[nH]c(C(F)F)nc6c5)cc4C3)c2C1` [Example 265] gave an IC50 of no more than 0.01 µM.

`Cc1nc2ccc(-c3ccc4c(c3)CN(c3ncnc(C)c3Cc3ccccc3)CCO4)cc2[nH]1` [Example 55, 7-(2-methyl-1H-benzimidazol-6-yl)-4-[6-methyl-5-(phenylmethyl)pyrimidin-4-yl]-2,3,4,5-tetrahydro-1,4-benzoxazepine] was tested, and the IC50 was no more than 0.01 µM.

For `CC(=O)OCc1nc2c(c(N3CCOc4ccc(-c5cnc6nc(C)[nH]c6c5)cc4C3)n1)CC(C)(C)CC2` [Example 313, {6,6-dimethyl-4-[7-(2-methyl-1H-imidazo[4,5-b]pyridin-6-yl)-2,3-dihydro-1,4-benzoxazepin-4(5H)-yl]-5,6,7,8-tetrahydroquinazolin-2-yl}methyl acetate], the IC50 was no more than 0.01 µM.

Compound `CC1CCc2c(ncnc2N2CCOc3ccc(-c4cnc5nc(N)[nH]c5c4)cc3C2)C1` (stereo not drawn) [Example 179, 6-[4-(7-methyl-5,6,7,8-tetrahydroquinazolin-4-yl)-2,3,4,5-tetrahydro-1,4-benzoxazepin-7-yl]-1H-imidazo[4,5-b]pyridin-2-amine] has an IC50 of 0.01 to 0.05 µM.

For `Cc1nc2ccc(-c3ccc4c(c3)CN(c3ccnc5ccccc35)CCO4)cc2[nH]1` [Example 98, 7-(2-methyl-1H-benzimidazol-6-yl)-4-quinolin-4-yl-2,3,4,5-tetrahydro-1,4-benzoxazepine], the IC50 was 0.05 to 0.25 µM.

`Cc1nc2ncc(-c3ccc4c(c3)CN(c3ncnc5c3CC[C@H](C)C5)CCO4)cc2[nH]1` [Example 560, 7-(2-methyl-1H-imidazo[4,5-b]pyridin-6-yl)-4-[(7S)-7-methyl-5,6,7,8-tetrahydroquinazolin-4-yl]-2,3,4,5-tetrahydro-1,4-benzoxazepine] gave an IC50 of 0.05 to 0.25 µM.

`CC1(C)CCc2ncnc(N3CCOc4ccc(-c5cnc(Cl)c(OC(F)F)c5)cc4C3)c2C1` [Example 573, 7-{6-chloro-5-[(difluoromethyl)oxy]pyridin-3-yl}-4-(6,6-dimethyl-5,6,7,8-tetrahydroquinazolin-4-yl)-2,3,4,5-tetrahydro-1,4-benzoxazepine] showed an IC50 of 0.25 to 1 µM.

In the case of `CCC1CCc2ncnc(N3CCOc4ccc(-c5cnc6nc(N)[nH]c6c5)cc4C3)c2C1` (stereo not drawn) [Example 178, 6-[4-(6-ethyl-5,6,7,8-tetrahydroquinazolin-4-yl)-2,3,4,5-tetrahydro-1,4-benzoxazepin-7-yl]-1H-imidazo[4,5-b]pyridin-2-amine], the IC50 is reported as no more than 0.01 µM.

Compound `COc1ccc2c(N3CCOc4ccc(-c5cnc6sc(NC(C)=O)nc6c5)cc4C3)nc(CN(C)C)nc2c1` [Example 618, N-[6-(4-{2-[(dimethylamino)methyl]-7-(methyloxy)quinazolin-4-yl}-2,3,4,5-tetrahydro-1,4-benzoxazepin-7-yl)[1,3]thiazolo[5,4-b]pyridin-2-yl]acetamide] has an IC50 of 0.25 to 1 µM.

`CC1(C)CCc2ncnc(N3CCOc4ccc(-c5cnc(O)c(S(=O)(=O)N6CC[C@H](N)C6)c5)cc4C3)c2C1` [Example 453, 3-{[(3S)-3-aminopyrrolidin-1-yl]sulfonyl}-5-[4-(6,6-dimethyl-5,6,7,8-tetrahydroquinazolin-4-yl)-2,3,4,5-tetrahydro-1,4-benzoxazepin-7-yl]pyridin-2-ol] was tested, and the IC50 was 0.05 to 0.25 µM.

In the case of `CN(C)Cc1nc2c(c(N3CCOc4ccc(-c5ccc6[nH]c(CF)nc6c5)cc4C3)n1)CC(C)(C)CC2` [Example 322], the IC50 is reported as 0.01 to 0.05 µM.

`CC1(C)CCc2ncnc(N3CCOc4ccc(-c5cnc(Cl)c(CS(C)(=O)=O)c5)cc4C3)c2C1` [Example 574, 7-{6-chloro-5-[(methylsulfonyl)methyl]pyridin-3-yl}-4-(6,6-dimethyl-5,6,7,8-tetrahydroquinazolin-4-yl)-2,3,4,5-tetrahydro-1,4-benzoxazepine] gave an IC50 of 1 to 2 µM.

Work on `Cc1nc2ncc(-c3ccc4c(c3)CN(c3nc(CN(C)C(C)C)nc5c3CC(C)(C)CC5)CCO4)cc2[nH]1` [Example 606, N-({6,6-dimethyl-4-[7-(2-methyl-1H-imidazo[4,5-b]pyridin-6-yl)-2,3-dihydro-1,4-benzoxazepin-4(5H)-yl]-5,6,7,8-tetrahydroquinazolin-2-yl}methyl)-N-methylpropan-2-amine] yielded an IC50 of 0.01 to 0.05 µM.

For `CC[C@H]1CCc2c(ncnc2N2CCOc3ccc(-c4cnc5nc(C)[nH]c5c4)cc3C2)C1` [Example 488, 4-[(7S)-7-ethyl-5,6,7,8-tetrahydroquinazolin-4-yl]-7-(2-methyl-1H-imidazo[4,5-b]pyridin-6-yl)-2,3,4,5-tetrahydro-1,4-benzoxazepine], the IC50 was no more than 0.01 µM.

Work on `CC1(C)CCc2ncnc(N3CCOc4ccc(-c5cnc(N6CC[C@H](N)C6)c(S(=O)(=O)N6CC[C@H](N)C6)c5)cc4C3)c2C1` [Example 306, (3S)-1-({2-[(3S)-3-aminopyrrolidin-1-yl]-5-[4-(6,6-dimethyl-5,6,7,8-tetrahydroquinazolin-4-yl)-2,3,4,5-tetrahydro-1,4-benzoxazepin-7-yl]pyridin-3-yl}sulfonyl)pyrrolidin-3-amine] yielded an IC50 of 0.25 to 1 µM.

`Cc1ncnc(N2CCOc3ccc(-c4cnc5sc(N)nc5c4)cc3C2)c1Cc1ccc(F)cc1` [Example 217, 6-(4-{5-[(4-fluorophenyl)methyl]-6-methylpyrimidin-4-yl}-2,3,4,5-tetrahydro-1,4-benzoxazepin-7-yl)[1,3]thiazolo[5,4-b]pyridin-2-amine] showed an IC50 of no more than 0.01 µM.

In the case of `COCCc1c(C)nc(CN(C)C)nc1N1CCOc2ccc(-c3cnc4sc(N)nc4c3)cc2C1` [Example 667, 6-(4-{2-[(dimethylamino)methyl]-6-methyl-5-[2-(methyloxy)ethyl]pyrimidin-4-yl}-2,3,4,5-tetrahydro-1,4-benzoxazepin-7-yl)[1,3]thiazolo[5,4-b]pyridin-2-amine], the IC50 is reported as 0.05 to 0.25 µM.

Compound `Cc1nc2ccc(-c3ccc4c(c3)CN(c3ncnc(C)c3Cc3cccc(C(F)(F)F)c3)CCO4)cc2[nH]1` [Example 92, 7-(2-methyl-1H-benzimidazol-6-yl)-4-(6-methyl-5-{[3-(trifluoromethyl)phenyl]methyl}pyrimidin-4-yl)-2,3,4,5-tetrahydro-1,4-benzoxazepine] has an IC50 of 0.25 to 1 µM.

In the case of `c1ccc2c(N3CCOc4ccc(-c5ccc6nc[nH]c6c5)cc4C3)ccnc2c1` [Example 126, 7-(1H-benzimidazol-6-yl)-4-quinolin-4-yl-2,3,4,5-tetrahydro-1,4-benzoxazepine], the IC50 is reported as 0.25 to 1 µM.

`Cc1nc2ccc(-c3ccc4c(c3)CN(c3ncnc(C)c3C(C)c3ccccc3)CCO4)cc2[nH]1` (stereo not drawn) [Example 74] showed an IC50 of no more than 0.01 µM.

In the case of `Cc1ncnc(N2CCOc3ccc(-c4ccc5nc(N)[nH]c5c4)cc3C2)c1Cc1ccc(F)cc1` [Example 189, 6-(4-{5-[(4-fluorophenyl)methyl]-6-methylpyrimidin-4-yl}-2,3,4,5-tetrahydro-1,4-benzoxazepin-7-yl)-1H-benzimidazol-2-amine], the IC50 is reported as no more than 0.01 µM.

For `CC[C@H]1CCc2c(ncnc2N2CCOc3ccc(-c4cnc5nc(NC(=O)OC)[nH]c5c4)cc3C2)C1` [Example 578, methyl (6-{4-[(7S)-7-ethyl-5,6,7,8-tetrahydroquinazolin-4-yl]-2,3,4,5-tetrahydro-1,4-benzoxazepin-7-yl}-1H-imidazo[4,5-b]pyridin-2-yl)carbamate], the IC50 was 0.01 to 0.05 µM.

`Cc1nc2ncc(-c3ccc4c(c3)CN(c3ncnc(C)c3C(C)C)CCO4)cc2[nH]1` [Example 564, 7-(2-methyl-1H-imidazo[4,5-b]pyridin-6-yl)-4-[6-methyl-5-(1-methylethyl)pyrimidin-4-yl]-2,3,4,5-tetrahydro-1,4-benzoxazepine] was tested, and the IC50 was no more than 0.01 µM.

For `Cc1ncnc(N2CCOc3ccc(-c4cnc(N)cn4)cc3C2)c1Cc1ccc(F)cc1` [Example 151, 5-(4-{5-[(4-fluorophenyl)methyl]-6-methylpyrimidin-4-yl}-2,3,4,5-tetrahydro-1,4-benzoxazepin-7-yl)pyrazin-2-amine], the IC50 was 0.05 to 0.25 µM.

For `CNC(=O)c1ccc(-c2ccc3c(c2)CN(c2ncnc(C)c2Cc2ccc(F)cc2)CCO3)cc1` [Example 171, 4-(4-{5-[(4-fluorophenyl)methyl]-6-methylpyrimidin-4-yl}-2,3,4,5-tetrahydro-1,4-benzoxazepin-7-yl)-N-methylbenzamide], the IC50 was no more than 0.01 µM.

`COc1c(OCc2ccc3ccccc3n2)ccc2c(N3CCOc4ccc(-c5ccc6nc(C)[nH]c6c5)cc4C3)ncnc12` [Example 167, 7-(2-methyl-1H-benzimidazol-6-yl)-4-{8-(methyloxy)-7-[(quinolin-2-ylmethyl)oxy]quinazolin-4-yl}-2,3,4,5-tetrahydro-1,4-benzoxazepine] gave an IC50 of no less than 2 µM.

Work on `Cc1cccc(Cl)c1S(=O)(=O)Nc1cc(-c2ccc3c(c2)CN(c2ncnc4c2CC(C)(C)CC4)CCO3)cnc1Cl` [Example 429, 2-chloro-N-{2-chloro-5-[4-(6,6-dimethyl-5,6,7,8-tetrahydroquinazolin-4-yl)-2,3,4,5-tetrahydro-1,4-benzoxazepin-7-yl]pyridin-3-yl}-6-methylbenzenesulfonamide] yielded an IC50 of 0.25 to 1 µM.
